Values joined by “and” are separate entries in the source; they are usually repeats but may differ in a detail not shown here. Identical values can stand only once.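 Five compound concentrations were applied to cells in 96-well plates for 48 hours; endpoints were derived by simple linear interpolation of the resulting dose-response curve. Abbreviation: GI50, concentration required for 50% inhibition of growth. TGI: concentration producing complete growth inhibition.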
Key:
Experiment in all cases: NCI anticancer screen, dose series, 48 h
BT-549 breast = system: BT-549 breast
DU-145 prostate = system: DU-145 prostate
HL-60(TB) leukemia = system: HL-60(TB) leukemia
K-562 leukemia = system: K-562 leukemia
MOLT-4 leukemia = system: MOLT-4 leukemia
OVCAR-5 ovarian = system: OVCAR-5 ovarian
OVCAR-8 ovarian = system: OVCAR-8 ovarian
U251 CNS = system: U251 CNS

| Structure (SMILES) | GI50 (BT-549 breast) | TGI (BT-549 breast) | GI50 (DU-145 prostate) | TGI (DU-145 prostate) | GI50 (HL-60(TB) leukemia) | TGI (HL-60(TB) leukemia) | GI50 (K-562 leukemia) | TGI (K-562 leukemia) | GI50 (MOLT-4 leukemia) | TGI (MOLT-4 leukemia) | GI50 (OVCAR-5 ovarian) | TGI (OVCAR-5 ovarian) | GI50 (OVCAR-8 ovarian) | TGI (OVCAR-8 ovarian) | GI50 (U251 CNS) | TGI (U251 CNS) |
| --- | --- | --- | --- | --- | --- | --- | --- | --- | --- | --- | --- | --- | --- | --- | --- | --- |
| CCN1C2=C(SC(=S)C1=C1SC(C(=O)c3ccccc3)=C(C(=O)c3ccccc3)S1)SC(=Nc1ccccc1)C2=O | 5.2 µM | 42.7 µM | 24.6 µM | > 100 µM | > 100 µM | > 100 µM | 4.91 µM | > 100 µM | 0.625 µM | > 22.2 µM | > 100 µM | > 100 µM | 2.34 µM | > 67.5 µM | 3.39 µM | > 60.5 µM |
| CC(C)c1ccc2c(c1)CCC1C(C)(CN)CCCC21C (stereo not drawn) |  | 3.43 µM |  | 3.33 µM |  | 3.09 µM |  | 3.01 µM |  | 3.61 µM |  | 3.33 µM |  | 3.4 µM |  | 2.83 µM |
| CCOC(=O)Cc1csc(Nc2nc(O)c(C3=c4ccccc4=NC3=O)s2)n1 | 92.3 µM | > 100 µM | 24.6 µM | 56.7 µM |  |  | 37.2 µM | > 100 µM | 36.7 µM | 88.9 µM | 43.6 µM | > 100 µM | 43.7 µM | > 100 µM | 19.2 µM | 39.6 µM |
| CO[C@@H]1[C@H](N(C)C(=O)c2ccccc2)C[C@@H]2O[C@]1(C)n1c3ccccc3c3c4c(c5c6ccccc6n2c5c31)C(=O)NC4=O | 1.21 µM | > 100 µM | 6.81 µM | > 100 µM | > 100 µM | > 100 µM | 11.1 µM | > 100 µM | 1.96 µM | > 100 µM |  |  | 94.6 µM | > 100 µM | 3.6 µM | > 100 µM |
| O=C(O)c1cc(C(=O)C(=O)c2cc(C(=O)O)c(O)c3ccccc23)c2ccccc2c1O |  | > 100 µM |  | > 100 µM |  |  |  | > 100 µM |  |  |  | > 100 µM |  | > 100 µM |  | > 100 µM |
| Fc1ccc(-c2nn3c(COc4ccccc4Cl)nnc3s2)cc1Oc1ccccc1 | 41.1 µM | > 100 µM | 39 µM | > 100 µM |  |  | > 100 µM | > 100 µM |  |  | 33.2 µM | 92.7 µM | 49.9 µM | > 100 µM | 18.4 µM | 41.2 µM |
| COc1cccc(Nc2ncnn3ccc(CN4CC[C@@H](N)[C@H](O)C4)c23)c1 | 14.2 µM and > 4.68 µM | 47.7 µM and > 7.41 µM | 1.59 µM and 0.927 µM | > 100 µM | 20.3 µM and > 4.71 µM | 41.1 µM and > 8.1 µM | 0.285 µM and 0.168 µM | 10.2 µM and > 10 µM | 5.68 µM and 2.26 µM | 33.2 µM and > 10 µM | 0.467 µM and 0.357 µM | 32.5 µM and > 10 µM | 2.73 µM and 1.66 µM | 40.3 µM and > 10 µM | 14.4 µM and > 5.46 µM | 49.3 µM and > 10 µM |
| N#C/C(=C\c1ccc([N+](=O)[O-])cc1)n1nnc2cc(F)c(F)cc21 | 1.77 µM | 4.17 µM | 1.72 µM | 3.14 µM | 2.36 µM | 5.78 µM | 3.14 µM | > 100 µM | 2.97 µM | 10.5 µM | 1.77 µM | 3.41 µM | 2.14 µM | 6.17 µM | 1.66 µM | 3.27 µM |
| O=C(NCCNc1nccc(-c2c(-c3ccc(F)cc3)nc3sccn23)n1)Nc1cccc(C(F)(F)F)c1 | 13.2 µM | 30.5 µM | 11.6 µM | 30.9 µM | 11.5 µM | > 100 µM | 6.14 µM | > 100 µM | 6.3 µM | > 100 µM | 18.5 µM | 54.4 µM | 3.76 µM | 27.4 µM | 7.62 µM | 31.7 µM |
